In one series the test system is Phospho-AMPKα (Thr172). Nature of the series: Phospho-AMPKα (Thr172) Western blot in myotubes. In kind it is cell-based. Particulars: C2C12 myotubes, FIG. 11. As to the method:
(§1) Cell Culture: C2C12 and 3T3-L1 preadipocytes (American Type Culture Collection) were plated at a density of 8000 cells/cm^2 (10 cm^2 dish) and grown in Dulbecco's modified eagle's medium (DMEM) containing 10% fetal bovine serum (FBS), and antibiotics (growth medium) at 37° C. in 5% CO2. Confluent 3T3-L1 preadipocytes were induced to differentiate with a standard differentiation medium consisting of DMEM medium supplemented with 10% FBS, 250 nM dexamethasone, 0.5 mM 3-Isobutyl-1-methylxanthine (IBMX) and 1% penicillin-streptomycin. Preadipocytes were maintained in this differentiation medium for 3 days and subsequently cultured in growth medium. Cultures were re-fed every 2-3 days to allow >90% cells to reach fully differentiation before conducting chemical treatment. For differentiation of C2C12 cells, cells were grown to 100% confluence, transferred to differentiation medium (DMEM with 2% horse serum and 1% penicillin-streptomycin), and fed with fresh differentiation medium every day until myotubes were fully formed (3 days).
Western blot: The Phospho-AMPKα (Thr172)- and Sirt1 (mouse specific)-antibody was obtained from Cell Signaling (Danvers, Mass.). C2C12 myotubes were treated as indicated in results and the cellular fractions were prepared using standard methods. Protein was measured by BCA kit (Thermo Scientific). […] Visualization and chemiluminescent detection was conducted using BioRad ChemiDoc instrumentation and software (Bio-Rad Laboratories, Hercules, Calif.) and band intensity was assessed using Image Lab 4.0 (Bio-Rad Laboratories, Hercules, Calif.), with correction for background and loading controls. P-AMPK was detected at 61-66 kDA and Sirt1 was detected at 104-115 kDA.
(In general: In western blotting, separated proteins are transferred to a membrane and probed.)

A further series deals with C2C12 myotubes. Nature of the series: Glucose utilization (extracellular acidification) in myotubes. In kind it is cell-based. The following applies: FIG. 9. The method, then:
as §1, with “For differentiation of C2C12 cells, cells were grown to 100% confluence, transferred to differentiation medium (DMEM with 2% horse serum and 1% penicillin-streptomycin), and fed with fresh differentiation medium every day until myotubes were fully formed (3 days).” left out
Glucose Utilization: In the absence of a fatty acid source and oxidative metabolism, glycolysis and subsequent lactate production results in extracellular acidification, which was also measured using a Seahorse Bioscience XF24 analyzer. […] Data for each sample were normalized to the pre-glucose injection baseline for that sample and expressed as % change from that baseline. The area under of the curve of extracellular acidification change from baseline for each sample was the calculated and used for subsequent analysis.

A short description of series [1]: Circulating level achieved by dietary dosing. In kind it is in vivo, human. An excerpt: In some embodiments, the dosing of leucine, any metabolites of leucine, and/or vitamin B6 can be designed to achieve a specified physiological concentration or circulating level of leucine, metabolites of leucine and/or vitamin B6. The physiological concentration can be a circulating level as measured in the blood stream of a subject. The subject can be a human or an animal. A selected dosing can be altered based on the characteristics of the subject, such as weight, rate of energy metabolism, genetics, ethnicity, height, or any other characteristic. The amount of leucine in a unit dose can be such that the circulating level of leucine in a subject is about or greater than about 0.25 mM, 0.5 mM, 0.75 mM, or 1 mM. A dosing of about 1,125 mg leucine can achieve a circulating level of leucine in a subject that is about 0.5 mM. A dosing of about 300 mg leucine can achieve a circulating level of leucine in a subject that is about 0.25 mM. A dosing of about 15 mg of vitamin B6 can achieve a circulating level of vitamin B6 that is about 100 nM. A dosing of about 7.5 mg of vitamin B6 can achieve a circulating level of vitamin B6 that is about 50 nM. The amount of vitamin B6 in a unit dose can be such that the circulating level of vitamin B6 in a subject is about or greater than about 10, 25, 50, 100, 150, or 200 nM. […]

The values that follow come from patent US9901573B2, “Compositions, methods, and kits for regulating energy metabolism” (NuSirt Sciences, Inc., priority 2012, dated 2018).

Consider `CC(C)C[C@H](N)C(=O)O` [Leucine, leucine], for which the “AMPK activation (Phosphorylated AMPK Thr172), increase” value in the series on Phospho-AMPKα (Thr172) was “Neither treatment with leucine, valine, nor B6 alone exerted any significant effect”. The “increase in glucose utilization” value in the series on C2C12 myotubes was “no independent significant effect”. Further, the entries for the “circulating level of leucine” value in series [1] (dosing of about 300 mg leucine) and in series [1] (dosing of about 1,125 mg leucine) were “about 0.25 mM” and “about 0.5 mM”, respectively.
